What was measured:
Male C57BL/6 Mice = assay: Sedation, behavioral change and clinical signs observed in Example 1; type: in vivo
Method: Animals were dosed per oral with respective treatment group using a dose volume of 10 ml/kg. Times of dosing were recorded. Immediately after compound treatment, animals were kept in an empty transparent chamber (23 cm length×17 cm width) for acclimatization and observation.
Ninety (90) minutes post compound dosing, 50-μl of chloroquine phosphate solution (a 200-μg dose) was injected intracutaneously into the animal's right cheek. Animals were returned to the same chamber for observation. Animals were observed by an observer blind to the treatment group for a period of 30 minutes post chloroquine injection. Total number of bouts of scratching directed at the ipsilateral cheek were recorded for 30 minutes.

[1] = test system: Oxazolone-Induced Dermatitis Model in male C57BL/6 mice; assay: Repeat dose Oxazolone-Induced Dermatitis Model (Example 10); type: in vivo
Method: Male C57BL/6 Mice (8-10 weeks) are used in the study. Mice are housed one per cage and are maintained at controlled environmental conditions with 12-h light and dark cycles. The temperature and humidity of the room are maintained between 22±3° C. and 55±5%, respectively. The maximum and minimum temperature and relative humidity in the experimental rooms are recorded once daily.
NCT10004 phosphate (adjusted with salt correction factor) is weighed into a clean glass container. 0.5% Methyl Cellulose (MC) is added, and the resulting mixture is mixed well using mild vortexing and stirred for 40 minutes to provide a homogeneous suspension.
PF-06372865 is weighed into a clean mortar. […]
Animals are dosed with respective treatment groups for fourteen consecutive Days (From Day 17-Day 30). To quantify any changes in the severity of skin lesions, Animals are assigned dermatitis scores prior to dosing and daily there after starting from Day 17 and ending on Day 30.
Skin lesion are observed and scored as follows: Hemorrhage/erythema, dryness/scaling and hyperplasia are scored as 0 (none), 1 (mild), 2 (moderate) or 3 (severe) once per day resulting in a composite score between 0 and 9. […]
Animals are observed by an observer blind to the treatment group for a period of 210 minutes post Oxazolone application. Number of scratching bouts directed to the nape between 15 to 210 min after dosing are recorded. […]

Structure (SMILES): CCn1cnc2c(-c3ccc(F)c(-c4ccc(S(=O)(=O)CC)cc4OC)c3)cnnc21 [PF-06372865]
- sedation (Male C57BL/6 Mice; 3 mg/kg PO): Minimal sedation
- other behavioral change or clinical sign (Male C57BL/6 Mice; any of the PF-06372865 treatment groups (0.3-30 mg/kg PO)): No other behavioral change or clinical sign were observed
- sedation (Male C57BL/6 Mice; at 10 mg/kg and 30 mg/kg PO): Dose dependent increase in sedation
- skin lesions (lesion score) ([1]; 1 mg/kg BID PO, Day 17-Day 30): decreases skin lesions comparable to the NCT10004
- scratching bouts ([1]; 1 mg/kg PO, 15-210 minutes): reduces scratching bouts

Source: patent US11571421B2, “GABAA positive allosteric modulator compounds for treatment of itch and/or dermatitis” (NeuroCycle Therapeutics, Inc., priority 2018, dated 2023)
